Test results taken from US20200239530A1, “COMPOUNDS AND METHODS OF MODULATING PROTEIN DEGRADATION” (Vividion Therapeutics, Inc., priority 2017, published 2020).
Where two headings read alike, the source gives them in different places.

What was measured:
[1] = biological target: T1, Polycomb group RING finger protein 6 (PCGF6) (Homo sapiens, UniProt Q9BYE7); test: Cysteine liganding, probe competition; type: binding
T1 construct: Cells were resuspended in cold PBS on ice and sonicated with a probe sonicator to achieve lysis; endogenous in cells
T1 sequence (Q9BYE7 1-350): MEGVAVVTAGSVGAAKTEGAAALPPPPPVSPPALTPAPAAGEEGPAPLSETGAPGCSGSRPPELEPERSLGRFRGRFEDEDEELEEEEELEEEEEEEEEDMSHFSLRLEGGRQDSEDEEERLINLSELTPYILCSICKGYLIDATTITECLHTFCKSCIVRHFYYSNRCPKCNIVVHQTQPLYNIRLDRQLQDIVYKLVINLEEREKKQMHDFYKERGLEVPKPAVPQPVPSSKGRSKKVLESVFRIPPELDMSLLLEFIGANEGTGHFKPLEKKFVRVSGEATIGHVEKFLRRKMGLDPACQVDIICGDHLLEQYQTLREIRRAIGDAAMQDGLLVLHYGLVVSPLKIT
Procedure: (§1) Cells were resuspended in cold PBS on ice and sonicated with a probe sonicator to achieve lysis. 200 μL of lysate containing 5 mg/ml proteome was treated with 2 μL of 100× compound stock in a 2-mL deep-well plate. The treated lysate was subsequently incubate at 25° C. for 1 hr with shaking at 600 rpm. The treated lysate was further incubated with 2 μL of 10 mM desthiobiotin iodoacetamide probe at 25° C. for 1 hr with shaking at 600 rpm. Next, the lysate was further treat with 20 μL of solution of PBS containing 11 mM MgSO4 and 2.5% Turbonuclease stock and incubated at 25° C. for 20 minutes with shaking at 600 rpm. 1.7 mL ice-cold acetone was added to each well and incubated at −20° C. for 2 hr, followed by max speed (4200 rpm) spin for 45 min. Acetone was then decanted and the plates were blotted to remove acetone. The plates were then dried in open air for 20 minutes. After drying, the plates were then covered with foil seal and stored at −80° C. overnight.
(§2) The next day, samples were re-suspended in 90 μL of solution of 9M urea, 50 mM ammonium bicarbonate and 10 mM DTT by incubating at 65C for 20 min with shaking at 1500 rpm. Next, samples were cooled to 37° C. and then 10 μL of 500 mM iodoacetamide solution (92.48 mg/ml) was added. The samples were then incubated at 37° C. for 30 min with shaking at 600 rpm.
(§3) ZEBA desalting plates were equilibrated 4 times using 250 μL of 2M urea, 50 mM ammonium bicarbonate solution followed by centrifugation at 1500 rpm for 2 minutes. After equilibration was complete, samples were applied to ZEBA desalting plate and spin at 1500 rpm for 2 min on top of 1 mL 96-well deep-well collection plate to buffer exchange samples. 4 μL of solution containing 25 mM CaCl2 and 0.25 mg/mL trypsin was added to the plate and the plate was then incubated at 37° C. for 2 hrs with shaking at 600 rpm. 300 μL of solution containing 5% high-capacity streptavidin agarose slurry in 25 mM Tris-HCl pH 7.5, 150 mM NaCl, and 0.1% NP-40 then added. The plate was incubated at 25° C. for 2 hrs with shaking at 600 rpm. Samples were transferred to 25 μm filter plate and spin at 1000 rpm for 2 min. Samples were then washed 3 times with 0.75 mL of wash buffer (25 mM Tris-HCl pH 7.5, 150 mM NaCl, and 0.1% NP-40) followed by washing 3 times with 0.75 mL PBS, and then 4 times with 0.75 mL water. After the washing step, samples were eluted into polypropylene 96-well plate by addition of 250 µL of 50% MeCN/water, 0.1% formic acid and allowed to gravity drip for 10 min, followed by centrifugation at 1000 rpm for 2 min. Speedvac was used to dry the plates at about 45° C. for […]. Then the plates were covered with foil seal and stored at −20° C.
(§4) Samples were resuspended by addition of 20 μl of 12.5% ACN, 0.1% formic acid solution, covered with foil seal, and incubated at 42° C. for 10 minutes with shaking at 600 rpm. Then add 30 μL of 0.1% formic acid solution was added and the plate was covered and incubated at 42° C. for 10 minutes with shaking at 600 rpm. Seal plate was then sealed with a 96-well silicon mat for analysis.

[2] = biological target: T2, TRIM71 E3 ubiquitin-protein ligase TRIM71 (Homo sapiens, UniProt Q2Q1W2); test: Cysteine liganding, probe competition; type: binding
T2 construct: Cells were resuspended in cold PBS on ice and sonicated with a probe sonicator to achieve lysis; endogenous in cells
T2 sequence (Q2Q1W2 1-868): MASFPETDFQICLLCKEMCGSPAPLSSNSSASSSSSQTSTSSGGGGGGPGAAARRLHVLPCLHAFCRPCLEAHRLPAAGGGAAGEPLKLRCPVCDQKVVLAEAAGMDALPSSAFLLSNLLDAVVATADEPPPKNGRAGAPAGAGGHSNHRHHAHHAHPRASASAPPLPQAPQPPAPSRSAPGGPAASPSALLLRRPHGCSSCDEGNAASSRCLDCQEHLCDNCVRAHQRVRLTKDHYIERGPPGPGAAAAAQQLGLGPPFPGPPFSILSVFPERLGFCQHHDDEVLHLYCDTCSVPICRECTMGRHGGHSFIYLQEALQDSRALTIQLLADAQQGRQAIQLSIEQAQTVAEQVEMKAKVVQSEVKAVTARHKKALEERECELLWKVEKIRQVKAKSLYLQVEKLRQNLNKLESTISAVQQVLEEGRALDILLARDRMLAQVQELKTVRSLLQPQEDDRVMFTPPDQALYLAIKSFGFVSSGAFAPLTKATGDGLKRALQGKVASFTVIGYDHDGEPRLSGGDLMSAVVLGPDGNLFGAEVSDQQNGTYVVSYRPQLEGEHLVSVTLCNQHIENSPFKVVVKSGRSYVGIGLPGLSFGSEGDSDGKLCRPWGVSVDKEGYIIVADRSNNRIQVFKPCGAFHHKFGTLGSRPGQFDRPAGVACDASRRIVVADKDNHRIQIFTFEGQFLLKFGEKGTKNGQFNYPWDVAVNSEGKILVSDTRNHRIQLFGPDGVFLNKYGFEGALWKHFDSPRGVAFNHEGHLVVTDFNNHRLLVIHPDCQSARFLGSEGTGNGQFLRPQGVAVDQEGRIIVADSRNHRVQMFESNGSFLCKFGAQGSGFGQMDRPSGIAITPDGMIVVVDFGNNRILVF
Procedure: as §1, §2, §3, §4

## COc1ccc2c(c1)CCCN2C(=O)CCl [KB02]
[1]; 500 uM, read-out: KB02_500 uM_percent_inhibition
  inhibition at 500 µM: 37%
[2]; 100 uM, UniProt Q2Q1W2, read-out: KB02_100 uM_percent_inhibition
  inhibition at 100 µM: 39%
[2]; TRIM71 Res# 636, uniprot Q2Q1W2
  Liganded: YES

## C=CC(=O)N(c1ccccc1)c1ccc(Br)cc1 [KB05]
[1]; 500 uM
  KB05_500 uM_percent_inhibition: 48%
[1]; 500 uM, read-out: KB05_500 uM_percent_inhibition
  inhibition at 500 µM: 33%
[2]; 100 uM, UniProt Q2Q1W2, read-out: KB05_100 uM_percent_inhibition
  inhibition at 100 µM: 5%

## O=C(CCl)Nc1cc(C(F)(F)F)cc(C(F)(F)F)c1 [KBO3]
[1]; 100 uM
  KB03_100 uM_percent_inhibition: 41%
[2]; 100 uM, UniProt Q2Q1W2
  KB03_100 uM_percent_inhibition: 17%
[2]; uniprot Q2Q1W2
  100 Max: 17.2
  100 ave: 17.2
  500 Max: 64.2
  500 ave: 64.2
